According to US10004225B2, “Wearable insect repelling patch” (S. C. Johnson & Son, Inc., priority 2005, dated 2018):

Legend:
mosquitoes [1] = experiment: Field test in southern Florida, one-minute biting count on lower leg of human test subjects wearing patches; type: in vivo
Source text: We also conducted some field tests of the present invention in southern Florida using patches 10 dosed with metofluthrin. Human test subjects and designated untreated control entered the test site, each test subject being separated by a minimum of 25 meters (approx. 75 feet). Shortly after all test subjects and an untreated control were set up in the test site, a 15 second ‘nuisance’ pre-count was taken by counting or best estimating the number of mosquitoes landing or touching the visual areas on the test suit.
Directly after the ‘nuisance’ count, a one-minute biting pre-count of a lower leg was taken. The pre-count began by having each subject roll up one pant leg to the knee then count the number of mosquitoes landing or biting on the exposed skin over a one minute period. Once a mosquito landed, the insect was pushed away (flicked, swatted or other) from the leg.
After the precounts were made, each test subject attached insect repellent patches 10 to predetermined areas on the test suit. The location of the patches is described below.
Mosquito land or bite counts were then made as described above for the pre-counts, with counts taken every 5 minutes for the first 20 minutes. After the 20 minute count, the test subjects and controls moved locations, walking approximately 15 meters. This was followed by their immediately taking a 15-second nuisance and one-minute biting count. Additional counts were then made at 25 and 30 minutes at that new location. After the 30 minute counts, the test subjects and controls moved location again, walking approximately 15 meters. This is followed by their immediately taking a 15-second nuisance and the one-minute biting count. An additional count was then made again at 35 minutes. The test was concluded after the 35 minute count.
The patches 10 used in the test were treated with metofluthrin, the 103 cm^2 patches bearing 60 mg and the 51.6 cm^2 patches bearing about 30 mg of metofluthrin. The patch material was selected either from a substrate made of a nylon-type material or from a non-woven cloth made of rayon, polyester, polypropylene, and polyethylene fibers. No difference in performance between the two materials was detected.
When four, 103 cm^2 patch samples were used, the patches were placed on the side of each shoulder and on the outwardly facing side of each knee. For the four, 51.6 cm^2 patch samples, the patches were placed on the side of each shoulder and on the top of the shoe. The 103 cm^2 patches were too big to place on the shoe, and therefore only the 51.6 cm^2 patches were placed there. For the two, 51.6 cm^2 patch testing, one patch was placed on one shoulder and another was placed on the outwardly facing side of the opposing knee.
The Average Percent Biting Repellency was calculated using the following formula:
C2=control count at time corresponding with treatment count
T1=precount for test area
T2=test area count at designated time
The percent repellency was calculated by the following formula: […]

mosquitoes [2] = experiment: Additional field tests with FIG. 4 type patches, wrist bands and ankle bands; type: in vivo; conditions: 7.5 cm×7.5 cm patches, 10 mg each, two or four patches, one or two wrist bands, five to sixty minute monitoring, heavy mosquito populations
Procedure: We then tried some additional field tests with respect to mosquitoes using FIG. 4 type patches. Patches were made be adhering a multi-layer non-woven cloth made of rayon, polyester, polypropylene, and polyethylene fibers 30 to a multi-laminate foil film 34 with strips of 3M double facing tape 32. The cloth was 7.5 cm×7.5 cm in top view, and the dosing included for each patch 10 mg of metofluthrin dissolved in 2.53 ml of acetone.
We then sealed the patches in towelette pouches for storage prior to use. When the patch was to be used, we opened the pouch by tearing it open, removed the patch, peeled off the multi-laminate foil, and attached the cloth/tape structure to the specified locations.
We tested the use of two patches, the use of four patches, the use of one or two wrist bands, and the use of one or two ankle bands. All achieved over 50% repellency throughout a five minute to sixty minute monitoring under conditions of heavy mosquito populations.

In the case of `CC=C[C@@H]1[C@@H](C(=O)OCc2c(F)c(F)c(COC)c(F)c2F)C1(C)C` (racemic) [metofluthrin, 2,3,5,6-tetrafluoro-4-methoxymethylbenzyl (EZ)-(1RS,3RS)-2,2-dimethyl-3-(prop-1-enyl)-cyclopropanecarboxylate], the “Percent Biting Repellency” value (mosquitoes [1]; 2 patches (51.6 cm^2, about 30 mg each), 3 reps, 0 min) is reported as 0%, the “Percent Biting Repellency” value (mosquitoes [1]; 2 patches (51.6 cm^2, about 30 mg each), 3 reps, 5 min) is reported as 42% and the “Percent Biting Repellency” value (mosquitoes [1]; 2 patches (51.6 cm^2, about 30 mg each), 3 reps, 10 min) is reported as 60%. The “Percent Biting Repellency” value (mosquitoes [1]; 2 patches (51.6 cm^2, about 30 mg each), 3 reps, 15 min) was 90%, the “Percent Biting Repellency” value (mosquitoes [1]; 2 patches (51.6 cm^2, about 30 mg each), 3 reps, 20 min) was 81% and the “Percent Biting Repellency” value (mosquitoes [1]; 2 patches (51.6 cm^2, about 30 mg each), 3 reps, 21 min, immediately after moving approx. 15 meters) was 13%. For the same compound, the “Percent Biting Repellency” value (mosquitoes [1]; 2 patches (51.6 cm^2, about 30 mg each), 3 reps, 25 min) was 82%, the “Percent Biting Repellency” value (mosquitoes [1]; 2 patches (51.6 cm^2, about 30 mg each), 3 reps, 30 min) was 81% and the “Percent Biting Repellency” value (mosquitoes [1]; 2 patches (51.6 cm^2, about 30 mg each), 3 reps, 31 min, immediately after moving approx. 15 meters) was 44%. For the same compound, the “Percent Biting Repellency” value (mosquitoes [1]; 2 patches (51.6 cm^2, about 30 mg each), 3 reps, 35 min) was 73%, the “Percent Biting Repellency” value (mosquitoes [1]; 3 patches (103 cm^2, 60 mg each), 2 reps, 0 min) was 0% and the “Percent Biting Repellency” value (mosquitoes [1]; 3 patches (103 cm^2, 60 mg each), 2 reps, 5 min) was 75%. The “Percent Biting Repellency” value (mosquitoes [1]; 3 patches (103 cm^2, 60 mg each), 2 reps, 10 min) was 100%, the “Percent Biting Repellency” value (mosquitoes [1]; 3 patches (103 cm^2, 60 mg each), 2 reps, 15 min) was 100% and the “Percent Biting Repellency” value (mosquitoes [1]; 3 patches (103 cm^2, 60 mg each), 2 reps, 20 min) was 100%. The “Percent Biting Repellency” value (mosquitoes [1]; 3 patches (103 cm^2, 60 mg each), 2 reps, 21 min, immediately after moving approx. 15 meters) was 16%, the “Percent Biting Repellency” value (mosquitoes [1]; 3 patches (103 cm^2, 60 mg each), 2 reps, 25 min) was 84% and the “Percent Biting Repellency” value (mosquitoes [1]; 3 patches (103 cm^2, 60 mg each), 2 reps, 30 min) was 84%. For the same compound, the “Percent Biting Repellency” value (mosquitoes [1]; 3 patches (103 cm^2, 60 mg each), 2 reps, 31 min, immediately after moving approx. 15 meters) was 64%, the “Percent Biting Repellency” value (mosquitoes [1]; 3 patches (103 cm^2, 60 mg each), 2 reps, 35 min) was 100% and the “Percent Biting Repellency” value (mosquitoes [1]; 4 patches (103 cm^2), 2 reps, 0 min) was 0%. For the same compound, the “Percent Biting Repellency” value (mosquitoes [1]; 4 patches (103 cm^2), 2 reps, 5 min) was 96%, the “Percent Biting Repellency” value (mosquitoes [1]; 4 patches (103 cm^2), 2 reps, 10 min) was 100% and the “Percent Biting Repellency” value (mosquitoes [1]; 4 patches (103 cm^2), 2 reps, 15 min) was 100%. For the same compound, the “Percent Biting Repellency” value (mosquitoes [1]; 4 patches (103 cm^2), 2 reps, 20 min) was 88%, the “Percent Biting Repellency” value (mosquitoes [1]; 4 patches (103 cm^2), 2 reps, 21 min, immediately after moving approx. 15 meters) was 33% and the “Percent Biting Repellency” value (mosquitoes [1]; 4 patches (103 cm^2), 2 reps, 25 min) was 50%. For the same compound, the “Percent Biting Repellency” value (mosquitoes [1]; 4 patches (103 cm^2), 2 reps, 30 min) was 73%, the “Percent Biting Repellency” value (mosquitoes [1]; 4 patches (103 cm^2), 2 reps, 31 min, immediately after moving approx. 15 meters) was 22% and the “Percent Biting Repellency” value (mosquitoes [1]; 4 patches (103 cm^2), 2 reps, 35 min) was 96%. The “Percent Biting Repellency” value (mosquitoes [1]; 4 patches (103 cm^2, 60 mg each), 1 rep, 0 min) was 0%, the “Percent Biting Repellency” value (mosquitoes [1]; 4 patches (103 cm^2, 60 mg each), 1 rep, 5 min) was 85% and the “Percent Biting Repellency” value (mosquitoes [1]; 4 patches (103 cm^2, 60 mg each), 1 rep, 10 min) was 94%. For the same compound, the “Percent Biting Repellency” value (mosquitoes [1]; 4 patches (103 cm^2, 60 mg each), 1 rep, 15 min) was 100%, the “Percent Biting Repellency” value (mosquitoes [1]; 4 patches (103 cm^2, 60 mg each), 1 rep, 20 min) was 92% and the “Percent Biting Repellency” value (mosquitoes [1]; 4 patches (103 cm^2, 60 mg each), 1 rep, 21 min, immediately after moving approx. 15 meters) was 85%. The “Percent Biting Repellency” value (mosquitoes [1]; 4 patches (103 cm^2, 60 mg each), 1 rep, 25 min) was 81%, the “Percent Biting Repellency” value (mosquitoes [1]; 4 patches (103 cm^2, 60 mg each), 1 rep, 30 min) was 100% and the “Percent Biting Repellency” value (mosquitoes [1]; 4 patches (103 cm^2, 60 mg each), 1 rep, 31 min, immediately after moving approx. 15 meters) was 61%. For the same compound, the “Percent Biting Repellency” value (mosquitoes [1]; 4 patches (103 cm^2, 60 mg each), 1 rep, 35 min) was 94%, the “personal area repellency in field test (result in words)” value (mosquitoes [1]; patch sizes, dosages and locations of Example 3, even after user moved to a new location) was “can successfully provide personal area repellency within a very brief time” and the repellency (mosquitoes [2]) was “over 50%”.
